Assay results: PMC7345905, “Microbial Metabolite Urolithin B Inhibits Recombinant Human Monoamine Oxidase A Enzyme” (Metabolites, 2020)
Values joined by “and” are separate entries in the source; they are usually repeats but may differ in a detail not shown here. Identical values can stand only once.

Tests used:
human recombinant MAO-A = target: T1, human recombinant MAO-A (Homo sapiens, UniProt P21397); assay: MAO-A inhibition kinetics (variable substrate, Lineweaver–Burk plot); format: biochemical; design: Michaelis-Menten best-fit Vmax of MAO-A / Michaelis-Menten best-fit Vmax of MAO-A, Average: unit not given here; conditions: for MAO-A assay signal (luminescence) / Transformed (reciprocal of MAO-A assay signal) / Michaelis-Menten best-fit Vmax of MAO-A: N=1-3
T1 construct: purchased Sigma-Aldrich
T1 sequence (P21397 1-527): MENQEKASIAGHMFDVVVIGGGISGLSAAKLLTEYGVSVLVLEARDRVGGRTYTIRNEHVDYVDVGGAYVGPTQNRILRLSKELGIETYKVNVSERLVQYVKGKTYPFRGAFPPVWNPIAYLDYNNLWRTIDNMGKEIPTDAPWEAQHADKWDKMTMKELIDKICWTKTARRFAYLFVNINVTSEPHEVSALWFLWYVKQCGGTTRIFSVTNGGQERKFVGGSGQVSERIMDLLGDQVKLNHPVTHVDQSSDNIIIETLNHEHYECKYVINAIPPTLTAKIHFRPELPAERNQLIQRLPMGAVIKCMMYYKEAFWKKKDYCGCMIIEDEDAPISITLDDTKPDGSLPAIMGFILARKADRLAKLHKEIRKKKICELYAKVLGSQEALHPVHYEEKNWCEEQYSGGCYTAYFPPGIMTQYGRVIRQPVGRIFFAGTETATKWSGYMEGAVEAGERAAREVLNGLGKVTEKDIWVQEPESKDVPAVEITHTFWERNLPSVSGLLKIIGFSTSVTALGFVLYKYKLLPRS
Experimental: MAO inhibition assays were performed using a MAO-Glo™ Assay kit (Promega) according to the manufacturer’s instructions. Briefly, 1 µg of human recombinant MAO-A and MAO-B enzyme isoforms were incubated with 160 and 16 µM of MAO substrates, respectively. […] The enzyme reaction was quenched by the addition of a luciferin detection reagent. […] An equal volume of dimethyl sulfoxide (0.1%) was added to the enzyme assay as a control. After 1 h of incubation, the luminescence was measured with a multimode microplate reader (Synergy HT, BioTek, Winooski, VT, USA) to determine the MAO enzyme activities. Initially, the inhibition potential of all the test compounds was evaluated at a concentration of 100 μM. The control reaction (with no inhibitor) with vehicle (DMSO 0.1%) was set at 100% activity. To determine IC50 of the test compounds, the dose dependent enzyme assays were performed. We used range of 0.1 to 50 μM concentrations for MAO-A and 0.1 to 200 μM concentrations of test compounds for the MAO-B enzyme activities. The type of enzyme inhibition was determined using variable concentrations of MAO-A substrate (10–360 µM) and MAO-B substrate (2–64 µM) for the respective enzyme assay. […] A Lineweaver–Burk double reciprocal plot was generated, and the mode of inhibition was determined by visual examination of the plot. The slope of the reciprocal plots was plotted against the inhibitor concentrations and determined the x-axis intercept that represented the inhibitor constant, Ki value.
All experiments were performed in triplicates and data are presented as mean ± standard error of the mean (SEM). The raw data are provided in Supplementary Data, Table S1. Enzyme kinetic data were analyzed using the Lineweaver–Burk plot. Statistical analysis was performed by Student’s t-test using GraphPad Prism Ver. 7.0 (GraphPad Prism Software Inc., San Diego, CA, USA).

[1] = design: method as in PMID 31892167; conditions: rats administered pomegranate juice; cited from earlier work
[2] = UroA 3 µM, MAO-A substrate 10 uM
[3] = UroA 3 µM, MAO-A substrate 20 uM
[4] = UroA 3 µM, MAO-A substrate 40 uM
[5] = UroA 3 µM, MAO-A substrate 80 uM
[6] = UroA 3 µM, MAO-A substrate 160 uM
[7] = UroA 3 µM, MAO-A substrate 320 uM
[8] = UroA 12 µM, MAO-A substrate 10 uM
[9] = UroA 12 µM, MAO-A substrate 20 uM
[10] = UroA 12 µM, MAO-A substrate 40 uM
[11] = UroA 12 µM, MAO-A substrate 80 uM
[12] = UroA 12 µM, MAO-A substrate 160 uM

Compound: O=c1oc2cc(O)ccc2c2ccc(O)cc12 [UA, urolithin-A]
- mode of inhibition of MAO-A (human recombinant MAO-A; Lineweaver–Burk plot): mixed mode of inhibition
- MAO-A assay signal (luminescence), Average (human recombinant MAO-A; [2]): 962.333
- MAO-A assay signal (luminescence) (human recombinant MAO-A; [2]): 1018 and 920 and 949
- MAO-A assay signal (luminescence), Average (human recombinant MAO-A; [3]): 1760.33
- MAO-A assay signal (luminescence) (human recombinant MAO-A; [3]): 1739 and 1707 and 1835
- MAO-A assay signal (luminescence), Average (human recombinant MAO-A; [4]): 3218.67
- MAO-A assay signal (luminescence) (human recombinant MAO-A; [4]): 3261 and 3188 and 3207
- MAO-A assay signal (luminescence), Average (human recombinant MAO-A; [5]): 6181.33
- MAO-A assay signal (luminescence) (human recombinant MAO-A; [5]): 6231 and 6107 and 6206
- MAO-A assay signal (luminescence), Average (human recombinant MAO-A; [6]): 11480.7
- MAO-A assay signal (luminescence) (human recombinant MAO-A; [6]): 11583 and 11575 and 11284
- MAO-A assay signal (luminescence), Average (human recombinant MAO-A; [7]): 20098
- MAO-A assay signal (luminescence) (human recombinant MAO-A; [7]): 20331 and 20247 and 19716
- Transformed (reciprocal of MAO-A assay signal), Average (human recombinant MAO-A; UroA 3 µM, [1/S] 0.003125): 4.976e-5
- Transformed (reciprocal of MAO-A assay signal) (human recombinant MAO-A; UroA 3 µM, [1/S] 0.003125): 4.9186e-5 and 4.939e-5 and 5.072e-5
- Transformed (reciprocal of MAO-A assay signal), Average (human recombinant MAO-A; UroA 3 µM, [1/S] 0.00625): 8.7103e-5
- Transformed (reciprocal of MAO-A assay signal) (human recombinant MAO-A; UroA 3 µM, [1/S] 0.00625): 8.633e-5 and 8.639e-5 and 8.862e-5
- Transformed (reciprocal of MAO-A assay signal), Average (human recombinant MAO-A; UroA 3 µM, [1/S] 0.0125): 0.0001618
- Transformed (reciprocal of MAO-A assay signal) (human recombinant MAO-A; UroA 3 µM, [1/S] 0.0125): 0.0001605 and 0.0001637 and 0.0001611
- Transformed (reciprocal of MAO-A assay signal), Average (human recombinant MAO-A; UroA 3 µM, [1/S] 0.025): 0.0003107
- Transformed (reciprocal of MAO-A assay signal) (human recombinant MAO-A; UroA 3 µM, [1/S] 0.025): 0.0003067 and 0.0003137 and 0.0003118
- Transformed (reciprocal of MAO-A assay signal), Average (human recombinant MAO-A; UroA 3 µM, [1/S] 0.05): 0.0005681
- Transformed (reciprocal of MAO-A assay signal) (human recombinant MAO-A; UroA 3 µM, [1/S] 0.05): 0.000575 and 0.0005858 and 0.000545
- Transformed (reciprocal of MAO-A assay signal), Average (human recombinant MAO-A; UroA 3 µM, [1/S] 0.1): 0.001039
- Transformed (reciprocal of MAO-A assay signal) (human recombinant MAO-A; UroA 3 µM, [1/S] 0.1): 0.0009823 and 0.001087 and 0.001054
- MAO-A assay signal (luminescence), Average (human recombinant MAO-A; [8]): 978.667
- MAO-A assay signal (luminescence) (human recombinant MAO-A; [8]): 993 and 1030 and 913
- MAO-A assay signal (luminescence), Average (human recombinant MAO-A; [9]): 1695.33
- MAO-A assay signal (luminescence) (human recombinant MAO-A; [9]): 1731 and 1673 and 1682
- MAO-A assay signal (luminescence), Average (human recombinant MAO-A; [10]): 3058.33
- MAO-A assay signal (luminescence) (human recombinant MAO-A; [10]): 3191 and 2983 and 3001
- MAO-A assay signal (luminescence), Average (human recombinant MAO-A; [11]): 5849.33
- MAO-A assay signal (luminescence) (human recombinant MAO-A; [11]): 5814 and 5864 and 5870
- MAO-A assay signal (luminescence), Average (human recombinant MAO-A; [12]): 10871
- MAO-A assay signal (luminescence) (human recombinant MAO-A; [12]): 10945 and 10745 and 10923
- MAO-A assay signal (luminescence), Average (human recombinant MAO-A; UroA 12 µM, MAO-A substrate 320 uM): 12941.7
- Transformed (reciprocal of MAO-A assay signal), Average (human recombinant MAO-A; UroA 12 µM, [1/S] 0.003125): 7.727e-5
- Transformed (reciprocal of MAO-A assay signal) (human recombinant MAO-A; UroA 12 µM, [1/S] 0.003125): 8.026e-5 and 7.7238e-5 and 7.452e-5
- Transformed (reciprocal of MAO-A assay signal), Average (human recombinant MAO-A; UroA 12 µM, [1/S] 0.00625): 9.199e-5
- Transformed (reciprocal of MAO-A assay signal) (human recombinant MAO-A; UroA 12 µM, [1/S] 0.00625): 9.137e-5 and 9.307e-5 and 9.155e-5
- Transformed (reciprocal of MAO-A assay signal), Average (human recombinant MAO-A; UroA 12 µM, [1/S] 0.0125): 0.000171
- Transformed (reciprocal of MAO-A assay signal) (human recombinant MAO-A; UroA 12 µM, [1/S] 0.0125): 0.000172 and 0.0001705 and 0.0001704
- Transformed (reciprocal of MAO-A assay signal), Average (human recombinant MAO-A; UroA 12 µM, [1/S] 0.025): 0.000327
- Transformed (reciprocal of MAO-A assay signal) (human recombinant MAO-A; UroA 12 µM, [1/S] 0.025): 0.0003134 and 0.0003352 and 0.0003332
- Transformed (reciprocal of MAO-A assay signal), Average (human recombinant MAO-A; UroA 12 µM, [1/S] 0.05): 0.0005899
- Transformed (reciprocal of MAO-A assay signal) (human recombinant MAO-A; UroA 12 µM, [1/S] 0.05): 0.0005777 and 0.0005977 and 0.0005945
- Transformed (reciprocal of MAO-A assay signal), Average (human recombinant MAO-A; UroA 12 µM, [1/S] 0.1): 0.001022
- Transformed (reciprocal of MAO-A assay signal) (human recombinant MAO-A; UroA 12 µM, [1/S] 0.1): 0.001007 and 0.0009709 and 0.001095
- Michaelis-Menten best-fit Vmax of MAO-A, Average (human recombinant MAO-A; in presence of UroA 3 uM): 79114.7
- Michaelis-Menten best-fit Vmax of MAO-A (human recombinant MAO-A; in presence of UroA 3 uM): 80970 and 83529 and 72845
- Michaelis-Menten best-fit Vmax of MAO-A, Average (human recombinant MAO-A; in presence of UroA 12 uM): 65883.7
- Michaelis-Menten best-fit Vmax of MAO-A (human recombinant MAO-A; in presence of UroA 12 uM): 75205 and 61786 and 60660
- Ki (human recombinant MAO-A; x-axis intercept of slopes of Lineweaver–Burk plots vs inhibitor concentration): 10 µM
- detection in the brain [1]: detected in the brains
